PMC3549271 (ACS medicinal chemistry letters, 2012)

Key:
[1] = target: human A2A adenosine receptor (hA2AAR) (Homo sapiens, UniProt P29274); test: radioligand binding assay at human A2AAR; conditions: free energy of binding divided by the number of heavy atoms
[2] = target: T1, human A1 adenosine receptor (hA1AR) (Homo sapiens, UniProt P30542); test: radioligand binding assay at human A1AR; conditions: read-out: % inhibition at 10μM A1
T1 sequence (P30542 1-326): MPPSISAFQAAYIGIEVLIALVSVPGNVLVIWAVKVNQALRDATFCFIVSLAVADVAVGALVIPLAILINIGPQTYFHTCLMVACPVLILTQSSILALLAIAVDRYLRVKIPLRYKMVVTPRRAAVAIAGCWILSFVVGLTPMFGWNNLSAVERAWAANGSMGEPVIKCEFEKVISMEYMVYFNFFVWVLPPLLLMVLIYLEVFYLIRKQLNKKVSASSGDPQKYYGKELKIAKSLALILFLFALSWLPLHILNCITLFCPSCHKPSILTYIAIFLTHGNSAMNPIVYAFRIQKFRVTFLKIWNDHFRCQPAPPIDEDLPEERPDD

[3] = target: T2, A2BAR (Homo sapiens, UniProt P29275); format: cell-based
T2 sequence (P29275 1-332): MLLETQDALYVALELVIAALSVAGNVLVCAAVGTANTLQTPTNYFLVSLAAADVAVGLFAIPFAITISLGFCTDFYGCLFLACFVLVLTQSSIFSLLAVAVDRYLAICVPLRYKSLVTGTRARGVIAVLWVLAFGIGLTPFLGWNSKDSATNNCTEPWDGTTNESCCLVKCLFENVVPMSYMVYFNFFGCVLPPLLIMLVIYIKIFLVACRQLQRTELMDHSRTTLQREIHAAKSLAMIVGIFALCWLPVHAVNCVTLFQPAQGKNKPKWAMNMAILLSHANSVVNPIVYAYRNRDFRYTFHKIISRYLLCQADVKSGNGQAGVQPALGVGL

Chain of human A2A adenosine receptor (hA2AAR) (P29274 whole entry): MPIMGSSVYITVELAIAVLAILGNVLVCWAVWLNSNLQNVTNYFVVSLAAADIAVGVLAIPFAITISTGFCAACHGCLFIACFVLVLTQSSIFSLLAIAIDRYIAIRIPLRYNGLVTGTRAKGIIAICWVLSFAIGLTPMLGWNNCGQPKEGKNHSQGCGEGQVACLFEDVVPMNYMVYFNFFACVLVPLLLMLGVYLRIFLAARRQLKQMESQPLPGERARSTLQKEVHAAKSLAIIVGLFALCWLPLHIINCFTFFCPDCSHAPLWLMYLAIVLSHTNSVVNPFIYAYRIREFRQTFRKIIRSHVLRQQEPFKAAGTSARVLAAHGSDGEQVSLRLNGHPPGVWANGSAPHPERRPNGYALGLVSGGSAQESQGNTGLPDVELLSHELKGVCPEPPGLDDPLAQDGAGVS

ligand efficiency (LE) [1] | inhibition at 10 µM [2] [%] | % inhibition at 10μM A2B (inhibition of cAMP accumulation) ([3]; 10 μM compound, in the presence of 300 nM NECA, three independent experiments) | inhibition at 10 µM ([3]; read-out: % inhibition at 10μM A2B (inhibition of cAMP accumulation)) [%] | SMILES
0.44 |  |  |  | O=C(Nc1nc(-c2ccccc2)n[nH]1)c1ccccc1 [Compound 29]
0.34 | 19 | no significant activity |  | Cc1cccc(O[C@H](C)C(=O)Nc2nc(-c3ccccc3)n[nH]2)c1 [Compound 1]
0.48 |  |  |  | CCCC(=O)Nc1nc(-c2ccccc2)n[nH]1 [Compound 27]
 |  |  | -15 | Cc1ccc(O[C@H](C)C(=O)Nc2nc(-c3ccco3)n[nH]2)cc1 [Compound 24]
0.42 |  |  |  | COc1ccccc1C(=O)Nc1nc(-c2ccccc2)n[nH]1 [Compound 32]
